Reference: article PMC12150632, “Chalcones inhibit firefly bioluminescence dependent on A and B-ring substitution pattern – a structure-activity study combined with molecular docking” (Journal of Enzyme Inhibition and Medicinal Chemistry, 2025)
pIC50: −log10 of the molar value.

Target: T1, firefly luciferase (FLuc) (Photinus pyralis, UniProt P08659)
T1 construct: purchased Sigma-Aldrich; host or cells: E. coli
Experiment: Inhibition assay of luciferase (purified recombinant enzyme, bioluminescence readout)
Format: biochemical
Conditions: n = 3; for pIC50: sigmoidal fit, concentration series 100 µM to 13 nM and 300 µM to 0.41 nM; for Inhibition (%) of FLuc: compound concentration 10 µM; for Inhibition (%) of FLuc / inhibition at 10 µM: relative to DMSO vehicle control; for inhibition at 10 µM: read-out: Inhibition (%) of FLuc, compound concentration 10 µM
Protocol: 25 µL of luciferase protein (c = 0.6 µg/mL, Sigma-Aldrich, recombinant expressed in E.coli) in Trisbuffer (10 mM Tris, 10 mM KCl, 1 mM EGTA, 30% glycerol) pH7.4 were added to each well of a white 96 well plate (Brand). The compounds were added in 1 µL DMSO at various concentrations. After incubation of the enzyme with the compounds for 10 min at room temperature, 80 µL of FLuc buffer (25 mM glycylglycin, 4 mM EGTA, 15 mM MgSO4, 15 mM PPB) was added and the light signal was immediately measured using a multiplate reader (Clariostar, BMG) with a gain of 2500 and a measurement interval time of 2 s. Inhibition was calculated in relation to the control, enzyme treated with vehicle (DMSO).
OriginPro 2021b (64-bit) SR2 (9.8.5.212) (OriginLab) was used to determine the inhibition and IC50 values and prepare the figures. The IC50 values were calculated from the sigmoidal fit of the log scale concentration without fixing the parameters.
The inhibitory activity of all chalcones was evaluated at a concentration of 10 µM on purified recombinant firefly luciferase, as this concentration would also be used in the reporter gene assay to determine neurogenic activity.
To obtain the IC50 values and construct a concentration-response curve, chalcones were measured in the assay using a series of decreasing concentrations, ranging from 100 µM to 13 nM and from 300 µM to 0.41 nM.

T1 sequence (P08659 whole entry): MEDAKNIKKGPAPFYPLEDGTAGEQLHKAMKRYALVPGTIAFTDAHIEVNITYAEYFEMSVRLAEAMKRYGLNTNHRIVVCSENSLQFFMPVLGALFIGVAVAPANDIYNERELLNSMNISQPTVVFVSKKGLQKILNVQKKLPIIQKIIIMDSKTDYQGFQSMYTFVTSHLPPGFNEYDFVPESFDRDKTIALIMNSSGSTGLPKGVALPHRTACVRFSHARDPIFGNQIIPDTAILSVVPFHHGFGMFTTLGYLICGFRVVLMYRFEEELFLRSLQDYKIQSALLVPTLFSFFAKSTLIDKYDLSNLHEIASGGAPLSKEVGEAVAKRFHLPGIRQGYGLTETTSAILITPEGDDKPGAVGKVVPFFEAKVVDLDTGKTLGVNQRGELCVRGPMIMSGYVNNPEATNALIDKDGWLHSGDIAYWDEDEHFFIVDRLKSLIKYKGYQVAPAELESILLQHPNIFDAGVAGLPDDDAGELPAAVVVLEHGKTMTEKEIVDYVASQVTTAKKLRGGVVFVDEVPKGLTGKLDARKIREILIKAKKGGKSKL

| Compound | inhibition at 10 µM [%] | Inhibition (%) of FLuc | also measured |
| --- | --- | --- | --- |
| O=C(O)c1cccc(-c2noc(-c3ccccc3F)n2)c1 [Ataluren, reference compound] | – | – | pIC50: 6.96 |
| CC1(C)C=Cc2cc(C(=O)/C=C/c3ccc(O)cc3)ccc2O1 [Compound 2, (E)-1–(2,2dimethyl-2H-chromen-6-yl)-3–(4-hydroxyphenyl)prop-2-en-1-one] | 30 | – | Inhibition (%) of FLuc (10 µM): 32% |
| COc1cc2c(cc1C(=O)/C=C/c1ccc(O)cc1)C=CC(C)(C)O2 [Compound 3, (E)-3–(4-hydroxyphenyl)-1–(7-methoxy-2,2-dimethyl-2H-chromen-6-yl)prop-2-en-1-one] | < 5 | – | – |
| CC1(C)C=Cc2c(ccc(C(=O)/C=C/c3ccc(O)cc3)c2O)O1 [Compound 4, (E)-1–(5-hydroxy-2,2-dimethyl-2H-chromen-6-yl)-3–(4-hydroxyphenyl)prop-2-en-1-one] | < 10 | – | – |
| CC1(C)C=Cc2cc(C(=O)/C=C/c3ccc(O)cc3)c(O)cc2O1 [Compound 5, (E)-1–(7-hydroxy-2,2-dimethyl-2H-chromen-6-yl)-3–(4-hydroxyphenyl)prop-2-en-1-one] | < 5 | – | – |
| CC1(C)C=Cc2cc(C(=O)/C=C/c3ccc(O)cc3)ccc2N1 [Compound 6, (E)-1–(2,2-dimethyl-1,2-dihydroquinolin-6-yl)-3–(4-hydroxyphenyl)prop-2-en-1-one] | 18 | – | – |
| CC1(C)C=Cc2cc(C(=O)/C=C/c3ccc(N)cc3)ccc2O1 [Compound 8, (E)-3–(4-aminophenyl)-1–(2,2-dimethyl-2H-chromen-6-yl)prop-2-en-1-one] | – | comparable to that of the hydroxyl group | – |
| CC1(C)C=Cc2cc(C(=O)/C=C/c3ccc(Cl)cc3)ccc2O1 [Compound 12, (E)-3–(4-chlorphenyl)-1–(2,2-dimethyl-2H-chromen-6-yl)prop-2-en-1-one] | – | near-complete elimination of the inhibitory effect | – |
| CC1(C)C=Cc2cc(C(=O)/C=C/c3ccc(C(F)(F)F)cc3)ccc2O1 [Compound 13, (E)-1–(2,2-dihmethyl-2H-chromen-6-yl)-3–(4-(trifluoromethyl)phenyl)prop-2-en-1-one] | – | near-complete elimination of the inhibitory effect | – |
| CC1(C)C=Cc2cc(C(=O)/C=C/c3ccccc3)ccc2O1 [Compound 14, (E)-1–(2,2-dimethyl-2H-chromen-6-yl)-3-phenylprop-2-en-1-one] | – | most pronounced inhibitory effect | pIC50: > 5.00 |
| CC1(C)C=Cc2cc(C(=O)/C=C/c3cccc(O)c3O)ccc2O1 [Compound 18, (E)-3–(2,3-dihydroxyphenyl)-1–(2,2-dimethyl-2H-chromen-6-yl)prop-2-en-1-one] | – | – | pIC50: > 5.00 |
| (E)-1–(2,2-dimethyl-2H-thiochromen-6-yl)-3–(4-methoxyphenyl)prop-2-en-1-one [Compound 7] | – | less than 10% | – |
| (E)-1–(7-hydroxy-5-methoxy-2,2-dimethyl-2H-chromen-6-yl)-3–(4-hydroxyphenyl)prop-2-en-1-one [Compound 1] | – | – | Inhibition (%) of FLuc (10 µM): no inhibition; Inhibition (%) of FLuc (listed as xanthohumol C, 10 µM): no inhibitory effect |
